Results from patent US4241182A, “Fortimicin factors KG1, KG2 and KG3 and processes for production thereof” (Kyowa Hakko Kogyo Co., Ltd., priority 1978, dated 1980).
Converted amounts (≈) assume the structure as drawn. Where two headings read alike, the source gives them in different places.

Columns and labels:
[1] = test system: Escherichia coli ATCC 26; experiment: Antibacterial spectrum, agar dilution method; format: cell-based
From the text: (§1) Table 3 illustrates the antibacterial spectra of Fortimicin factors KG1, KG2 and KG3 against various microorganisms.
(§2) (Minimum Inhibitory Concentration, μg/ml measured by
(§3) agar dilution method at pH 8.0)

[2] = test system: Escherichia coli KY8302; experiment: Antibacterial spectrum, agar dilution method; format: cell-based; details: for MIC: Escherichia coli, KY8302, pH 8, Escherichia coli KY8302 (resistant to chloramphenicol, streptomycin, kanamycin, paromomycin, tetracycline and spectinomycin), read-out: Minimum Inhibitory Concentration
From the text: as §1, §2, §3

[3] = test system: Escherichia coli KY8327; experiment: Antibacterial spectrum, agar dilution method; format: cell-based; details: for MIC: Escherichia coli, KY8327, pH 8, Escherichia coli KY8327 (resistant to kanamycin, gentamicin and tobramycin), read-out: Minimum Inhibitory Concentration
From the text: as §1, §2, §3

[4] = test system: Escherichia coli KY8348; experiment: Antibacterial spectrum, agar dilution method; format: cell-based; details: for Minimum Inhibitory Concentration: Escherichia coli KY8348 (resistant to streptomycin and gentamicin), pH 8.0
From the text: as §1, §2, §3

[5] = test system: Proteus vulgaris ATCC 6897; experiment: Antibacterial spectrum, agar dilution method; format: cell-based
From the text: as §1, §2, §3

[6] = test system: Pseudomonas aeruginosa BMH#1; experiment: Antibacterial spectrum, agar dilution method; format: cell-based
From the text: as §1, §2, §3

[7] = test system: Staphylococcus aureus ATCC 6538P; experiment: Antibacterial spectrum, agar dilution method; format: cell-based; details: for MIC: Staphylococcus aureus, ATCC6538P, pH 8, Staphylococcus aureus ATCC 6538P, read-out: Minimum Inhibitory Concentration
From the text: as §1, §2, §3

[8] = test system: Gram-positive and Gram-negative bacteria; experiment: Antibacterial spectrum (summary of Table 3); format: cell-based
From the text: as §1, §2, §3

[9] = Solubility of the free base; format: physicochemical; details: for solubility in ethanol and acetone / solubility in methanol / solubility in organic solvents such as chloroform, benzene, ethyl acetate, butyl acetate, ethyl ether, butanol, petroleum ether, n-hexane / solubility in water: free base
[10] = test system: Bacillus subtilis No. 10707; experiment: Activity of isolated substance (units per mg), paper disc method; format: cell-based
Protocol: After the completion of fermentation, the culture liquor is adjusted to pH 2.5 with concentrated sulfuric acid and is stirred for 30 minutes. Thereafter, about 7 kg of a filter aid, Radiolite No. 600 (product of Showa Kagaku Kogyo Co., Ltd., Japan) is added to the culture liquor and the microbial cells are removed by filtration. The filtrate is adjusted to pH 7.5 by the addition of 6 N sodium hydroxide, and then flowed through a column packed with about 20 l of a cation exchange resin, Amberlite IRC-50 (ammonium form). The active principles are adsorbed on the resin, and the effluent is discarded. After the resin is washed with water, elution of the active principles is carried out with 1 N aqueous ammonia. The eluate is subjected to determination of activity by a paper disc method using an agar plate of Bacillus subtilis No. 10707. Fractions showing an activity are combined and concentrated under reduced pressure to about 1 l. The concentrate is adjusted to pH 7 with concentrated hydrochloric acid and then flowed through a column packed with 3 l of Amberlite CG-50 (ammonium form). After the resin is washed with water, elution is carried out with 0.1 N NH4 OH containing 0.1 M NH4 Cl. The eluate is taken in 500 ml fractions. Each fraction is subjected to determination of antibacterial activity against Bacillus subtilis No. 10707 and identification of active component by silica gel thin layer chromatography [Developer: the lower layer of a mixed solvent of chloroform, methanol and concentrated aqueous ammonia (2:1:1 by volume), Coloring agent: ninhydrin]. After the volume of the eluate reaches about 3 l, Fortimicin factors KG1, KG2 and KG3 begin to be eluted. The fractions containing Fortimicin factors KG1, KG2 and KG3 are collected, concentrated under reduced pressure to remove ammonia, neutralized with concentrated hydrochloric acid and flowed through a column packed with 500 ml of Amberlite IRC-50 (ammonium form). After the resin is washed with water, elution is carried out with 0.5 N aqueous ammonia. The active fractions are collected, concentrated under reduced pressure and freeze-dried to obtain 2 g of a white powder. The powder contains in it 250 mg of Fortimicin KG1, 640 mg of Fortimicin KG2 and 330 mg of Fortimicin KG3.
2 g of the crude powder is placed on a silica gel column (Silica gel: produced by Wako Junyaku Co., Ltd., Japan, Diameter of column: about 3 cm). Development is carried out with the lower layer of a mixed solvent of chloroform, methanol and concentrated aqueous ammonia (3:1:1 by volume). The eluate is taken in 20 ml fractions. Each fraction is subjected to the silica gel thin layer chromatography. First, Fortimicin B is eluted and then Fortimicin factors KG2, KG1 and KG3 are eluted in this order. The fractions respectively containing Fortimicin factors KG1, KG2 and KG3 are collected, concentrated under reduced pressure and freeze-dried to obtain 200 mg of Fortimicin KG1, [Activity: 970 u/mg (u: unit)], 500 mg of Fortimicin KG2 (Activity: 970 u/mg) and 250 mg of Fortimicin KG3 (Activity: 950 u/mg) (Activity of each of the purified substances is considered to be 1000 u/mg).

[11] = test system: Bacillus subtilis No. 10707; experiment: Antibacterial spectrum, agar dilution method; format: cell-based; details: pH 8.0, read-out: Minimum Inhibitory Concentration
From the text: as §1, §2, §3

[12] = test system: Klebsiella pneumoniae ATCC 10031; experiment: Antibacterial spectrum, agar dilution method; format: cell-based; details: ATCC10031, pH 8.0, read-out: Minimum Inhibitory Concentration
From the text: as §1, §2, §3

[13] = test system: Salmonella typhosa ATCC 9992; experiment: Antibacterial spectrum, agar dilution method; format: cell-based; details: Salmonella enterica, pH 8, read-out: Minimum Inhibitory Concentration
From the text: as §1, §2, §3

[14] = test system: Shigella sonnei ATCC 9290; experiment: Antibacterial spectrum, agar dilution method; format: cell-based; details: ATCC9290, pH 8.0, read-out: Minimum Inhibitory Concentration
From the text: as §1, §2, §3

[15] = test system: certain strains of Escherichia coli which are resistant to various antibiotics; experiment: Antibacterial activity against resistant strains (summary of Table 3); format: cell-based
From the text: as §1, §2, §3

[16] = Acute toxicity, intravenous administration in mice; details: mouse, in vivo
[17] = Pseudomonas aeruginosa BMH#1, pH 8.0, read-out: Minimum Inhibitory Concentration
[18] = after silica gel chromatography, pure substance considered 1000 u/mg
[19] = ATCC6897, Proteus vulgaris ATCC 6897, pH 8.0, read-out: Minimum Inhibitory Concentration

Row | SMILES | MIC [2] | MIC [3] | Minimum Inhibitory Concentration [4] | MIC [6, 17] | MIC [7] | antibacterial activity / spectrum (in words) [8] | solubility in ethanol and acetone [9] | solubility in methanol [9] | solubility in organic solvents such as chloroform, benzene, ethyl acetate, butyl acetate, ethyl ether, butanol, petroleum ether, n-hexane [9] | solubility in water [9] | solubility in the ordinary organic solvents [9] | Activity [10, 18] | MIC [5, 19] | Activity ([10]; sulfate, u: unit) | further results
1 | CNC1C(O)C(OC2OC(C(C)N)=CCC2N)C(N)C(O)C1OC (stereo not drawn) [Fortimicin KG1] | 26.1 µg/mL (≈ 75.3 µM) | 26.1 µg/mL (≈ 75.3 µM) | 26.1 µg/mL | > 208 µg/mL | 13.1 µg/mL (≈ 37.8 µM) | broad antibacterial spectrum | slightly soluble | soluble | insoluble | readily soluble | poorly soluble | 970 u/mg |  |  | MIC ([1]; Escherichia coli, ATCC26, pH 8, read-out: Minimum Inhibitory Concentration, Escherichia coli ATCC 26): 26.1 µg/mL (≈ 75.3 µM); MIC ([5]; Proteus vulgaris, ATCC6897, pH 8, read-out: Minimum Inhibitory Concentration, Proteus vulgaris ATCC 6897): 26.1 µg/mL (≈ 75.3 µM)
2 | CNC1C(O)C(OC2OC(C(C)N)=CCC2N)C(N)C(O)C1OC (stereo not drawn) [Fortimicin KG2] |  |  | 166.6 µg/mL |  |  | broad antibacterial spectrum | slightly soluble | soluble | insoluble | readily soluble | poorly soluble | 970 u/mg | 83.3 µg/mL (≈ 240 µM) |  | Minimum Inhibitory Concentration ([1]; Escherichia coli ATCC 26, pH 8.0): 41.7 µg/mL; Minimum Inhibitory Concentration ([2]; Escherichia coli KY8302 (resistant to chloramphenicol, streptomycin, kanamycin, paromomycin, tetracycline and spectinomycin), pH 8.0): 41.7 µg/mL; Minimum Inhibitory Concentration ([3]; Escherichia coli KY8327 (resistant to kanamycin, gentamicin and tobramycin), pH 8.0): 20.9 µg/mL; MIC ([6]; Pseudomonas aeruginosa, pH 8, read-out: Minimum Inhibitory Concentration, Pseudomonas aeruginosa BMH#1): > 167 µg/mL; Minimum Inhibitory Concentration ([7]; Staphylococcus aureus ATCC 6538P, pH 8.0): 10.5 µg/mL
3 | COC1C(O)C(N)C(OC2OC(C(C)N)=CCC2N)C(O)C1N(C)C(=O)CN (stereo not drawn) [Fortimicin KG3] | 0.52 µg/mL (≈ 1.29 µM) | 0.33 µg/mL (≈ 0.818 µM) |  | 5.2 µg/mL (≈ 12.9 µM) | 0.083 µg/mL (≈ 0.206 µM) | strong antibacterial activity against a broad range of Gram-positive and Gram-negative bacteria | slightly soluble | soluble | insoluble | readily soluble | poorly soluble | 950 u/mg | 0.66 µg/mL (≈ 1.64 µM) |  | MIC [11]: < 0.045 µg/mL; MIC ([1]; ATCC26, Escherichia coli ATCC 26, pH 8.0, read-out: Minimum Inhibitory Concentration): 0.33 µg/mL (≈ 0.818 µM); MIC ([4]; Escherichia coli, KY8348, pH 8, Escherichia coli KY8348 (resistant to streptomycin and gentamicin), read-out: Minimum Inhibitory Concentration): 10.4 µg/mL (≈ 25.8 µM); MIC [12]: 0.18 µg/mL (≈ 0.446 µM); MIC [13]: 0.18 µg/mL (≈ 0.446 µM); MIC [14]: 0.7 µg/mL (≈ 1.73 µM); effectiveness against resistant Escherichia coli (in words) [15]: effective against certain strains of Escherichia coli which are resistant to various antibiotics; LD50 [16]: 225 mg/kg
4 | CNC1C(O)C(OC2OC(C(C)N)=CCC2N)C(N)C(O)C1OC (stereo not drawn) [sulfate of Fortimicin KG1] |  |  |  |  |  |  |  |  |  |  |  |  |  | 620 u/mg | 
5 | CNC1C(O)C(OC2OC(C(C)N)=CCC2N)C(N)C(O)C1OC (stereo not drawn) [sulfate of Fortimicin KG2] |  |  |  |  |  |  |  |  |  |  |  |  |  | 620 u/mg | 
6 | COC1C(O)C(N)C(OC2OC(C(C)N)=CCC2N)C(O)C1N(C)C(=O)CN (stereo not drawn) [sulfate of Fortimicin KG3] |  |  |  |  |  |  |  |  |  |  |  |  |  | 650 u/mg | 
